How the values were obtained:
[1] = system: dry eye-model rat (exorbital lacrimal gland excised); assay: Drug evaluation for corneal disorder in dry eye rat model (Test 5); assay type: in vivo; conditions: 0.01% to 1% ophthalmic solutions, 1 μL per shot, twice per day, 4 weeks; ** denotes p<0.01
Description: Drug Evaluation for Corneal Disorder in Dry Eye Rat Model
For the corneal disorder in the model rat whose exorbital lacrimal gland is excised, the drug effect was evaluated about hyaluronic acid (HA) which is an existing drug, and the present compound.
Male SD rat was anesthetized with inhalational isoflurane, and the exorbital lacrimal gland thereof was excised to prepare a dry eye-model rat (the conditions to prepare the dry eye-model rat can be changed as necessary, for example, by combining the excision of exorbital lacrimal gland with the medication of streptozotocin or the like). Three weeks after the operation, each vehicle for eye drop (typically phosphate-buffered saline (PBS)), and 0.01%, 0.1%, and 1% the ophthalmic solutions of the present compound (Example 19) were administered to the rat in an awareness at 1 μL per shot, twice per day, for 4 weeks.
The scoring of disorder extent in the site of corneal disorder was evaluated with 4 grades of the evaluation criteria of 0-3 according to Test 3.
The statistical significance for the drug effect was evaluated by nonparametric Tukey's multiple comparison test, in which the result of each test group was compared with that of the vehicle-administration group (PBS) in which the rat's exorbital lacrimal gland is excised.

[2] = molecular target: T1, mouse semaphorin 3A (Sema3A) (Mus musculus, UniProt O08665); assay: Inhibitory activity for the collapse activity caused by Sema3A (growth cone collapse assay, Test 1); assay type: cell-based; conditions: chick embryo dorsal root ganglion, 3 units/mL mouse Sema3A, smaller value = more potent inhibition, read-out: residual ratio (%) of Sema3A activity (collapse assay)
T1 sequence (O08665 21-772): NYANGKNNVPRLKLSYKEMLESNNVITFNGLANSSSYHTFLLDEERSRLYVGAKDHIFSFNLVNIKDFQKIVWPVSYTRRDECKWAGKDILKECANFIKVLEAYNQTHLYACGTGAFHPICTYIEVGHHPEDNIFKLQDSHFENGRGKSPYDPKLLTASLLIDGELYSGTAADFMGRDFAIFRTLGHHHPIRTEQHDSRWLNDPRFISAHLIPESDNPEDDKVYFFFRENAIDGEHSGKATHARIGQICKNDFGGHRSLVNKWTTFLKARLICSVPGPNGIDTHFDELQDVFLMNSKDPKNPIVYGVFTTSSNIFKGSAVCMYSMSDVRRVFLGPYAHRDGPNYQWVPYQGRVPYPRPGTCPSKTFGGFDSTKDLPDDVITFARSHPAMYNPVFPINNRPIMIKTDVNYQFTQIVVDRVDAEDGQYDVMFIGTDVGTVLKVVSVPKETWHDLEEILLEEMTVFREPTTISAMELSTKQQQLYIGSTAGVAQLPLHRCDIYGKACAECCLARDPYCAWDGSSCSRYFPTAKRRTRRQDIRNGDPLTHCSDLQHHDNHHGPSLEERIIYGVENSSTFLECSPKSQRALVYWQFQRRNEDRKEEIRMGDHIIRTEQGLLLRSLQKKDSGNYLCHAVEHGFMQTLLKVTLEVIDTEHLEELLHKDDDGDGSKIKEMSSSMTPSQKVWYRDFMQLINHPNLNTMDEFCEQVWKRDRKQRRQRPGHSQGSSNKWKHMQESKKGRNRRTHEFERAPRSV
Description: Inhibitory Activity for the Collapse Activity Caused by Sema3A
96 well-plate (SUMITOMO BAKELITE CO., LTD.) which was beforehand coated with polylysine was further coated with laminin (10 μL laminin, at room temperature, for 1 hour). To each well was added 100 μL of a medium (F12 medium containing 10% fetal bovine serum, 20 ng/mL NGF, 100 unit/mL penicillin, and 100 μg/mL streptomycin). Dorsal root ganglion harvested from 7-8 day-old chick embryo was inoculated thereto, and the culture medium was cultivated under the condition of 5% CO2 and 37° C. for 16-20 hours. And then, each test compound in various concentrations was added to the medium, each test medium was cultivated for 30 minutes, 3 units/mL mouse semaphorin 3A (Sema3A) was added to each medium, and then each test medium was cultivated for more 30 minutes. Then, glutaraldehyde was added to the medium, in which the final concentration of glutaraldehyde was 1%. The medium was left to stand at room temperature for 15 minutes to make the tissue fragment fixed, and the ratio of the retracted growth cone was measured under a microscope.

Cn1cc(-c2coc3cc(O)c(O)c(C(=O)OCC(=O)N[C@@H](CCC(=O)O)C(=O)O)c3c2=O)c(=O)c2cc(O)c(O)cc21 [Example 19, N-[({[3-(6,7-Dihydroxy-1-methyl-4-oxo-1,4-dihydroquinolin-3-yl)-6,7-dihydroxy-4-oxo-4H-chromen-5-yl]carbonyl}oxy)acetyl]-L-glutamic acid]
improvement for corneal disorder (fluorescein staining score 0-3) vs vehicle-administration group (PBS) [1]: marked improvement | remaining activity at 1 µM ([2]; 1 μM test compound): 4.2% | remaining activity at 3 µM ([2]; 3 μM test compound): 0%

Reference: patent US11440905B2, “Biheterocyclic compound” (SUMITOMO PHARMA CO., LTD., priority 2016, dated 2022)
